Patent US11872199B2, “Topical formulations of cyclooxygenase inhibitors and their use” (SMARTECH TOPICAL, INC., priority 2019, dated 2024)

How the values were obtained:
[1] = Franz diffusion cell skin permeation testing of diclofenac formulations; format: in vitro ADME, human; conditions: Example 7, as permeation enhancer in 2% diclofenac formulation
Protocol: Franz diffusion cell experiments were used to analyze flux rates of diclofenac from compositions taught under the present disclosure across human skin. See, e.g., Bartosova and Bajgar, Transdermal Drug Delivery In Vitro Using Diffusion Cells, Curr. Med. Chem. 2012, 19: 4671-4677.
In the examples described herein, Franz diffusion cells (“FDC”s) with a 3.3 mL receptor well volume were used, with either porcine skin or human cadaver skin. For human cadaver skin, split thickness human cadaver skin (0.015″-0.018″) was obtained from AlloSource (Centennial, Colo.) or Skin Bank New York Firefighters (New York, N.Y.). The skin tissue was dermatomed by the tissue bank to a thickness of some 250 μm and shipped frozen on dry ice. […]
The integrity and quality of each skin piece was tested prior to application of the test formulations through measurement of the transdermal flux of tritiated water or of the transepidermal electrical resistance (“TEER”) (skin integrity was usually not tested on porcine skin pieces). […] An alternating current (“AC”) signal, 100 mV root mean square (“RMS”) at 100 Hz, was applied across the skin using a waveform generator and the impedance is then measured with a digital multimeter and the results recorded in kΩ. Any FDC showing anomalously low impedance (nominally <2 kΩ) was discarded and the FDCs were ranked according to the magnitudes of the measured impedance readings. […]

[2] = printed as negative log P; cited from earlier work

SMILES: CCCCCCCC/C=C\CCCCCCCC(=O)O [Oleic Acid, cis-9-octadecenoic acid]
- effect on penetration of diclofenac [1]: enhance penetration of diclofenac

SMILES: CCCCCCCC/C=C\CCCCCCCCO [Oleyl Alcohol, oleyl alcohol]
- effect on penetration of diclofenac [1]: enhance penetration of diclofenac

SMILES: CCOCCOCCO [Transcutol, 2-(2-Ethoxyethoxy)ethanol]
- log P [2]: ~-0.5
